Assay results reported in US10645922B2, “Methods and compositions for pest bait” (Dow AgroSciences LLC, priority 2015, dated 2020).
Entries after “also recorded” stand apart in the source; their conditions may differ.

Test system: termites
Assay: Two-way choice bioassay, filter paper consumption by termite workers
Type: in vivo, Reticulitermes flavipes
Settings: FIG. 1A, FIG. 1B; series of experiments and validated tests
Protocol: Two-way choice bioassays are conducted with the granule formulation containing 1% 1-MCP in weight boats. Test materials are placed in weigh boats to prevent physical contact of termite workers with test material. Filter papers associated with 1-MCP are used to qualify consumption. Bioassay arenas are placed inside sealed plastic containers with open moisture sources to maintain high humidity for releasing 1-MCP from the granule formulation. […] The experiment results are also shown in Table 1, where negative control uses granules having 22% alpha-cyclodextrin+78% sodium bentonite.

With CC1=CC1 [1-MCP, 1-methylcyclopropene] the “Filter paper consumption in presence of 1-MCP (in words)” value was “Significant higher consumption; also recorded: significantly increase”.
